Experimental data from patent EP0452101B1, “Spiro bridged and unbridged heterocyclic compounds” (ISRAEL INSTITUTE FOR BIOLOGICAL RESEARCH, priority 1990, dated 1991).
Read-outs that look alike come from different tables or passages of the source.

Legend:
[1] = target: T1, m3 subtype (SK-N-SH cells) (Homo sapiens, UniProt P20309); assay: PI hydrolysis in SK-N-SH neuroblastoma cells; type: cell-based
T1 construct: endogenous in cells; host or cells: SK-N-SH human neuroblastoma cells
Procedure: (§1) The new compounds AF150, AF151, AF150(S) and AF125 were assayed for their ability to stimulate PI in CHO cells transfected with m1 and m3 receptors, respectively (Buck and Fraser, loc cit), and in cultured human neuroblastoma cells, line SK-N-SH, which express mainly the m3 subtype, but not the m1 subtype (Pinkas-Kramarski et al, Neurosci. Lett. 188: 335-340, 1990; Luthin et al Mol. Pharmacol. 34: 327-333, 1988). These compounds were also assayed on cultured PC12 cells which express mainly m4 subtype receptors and are coupled to inhibition of AC activity (Pinkas-Kramarski et al, loc cit).
(§2) Stimulation of PI breakdown was assayed using the method described by Stein et al (EMBO J. 7: 3031-3035, 1988), and modulation of AC activity was assayed by the method of Stein et al, loc cit and Pinkas-Kramarski et al (FEBS Lett., 239: 174-178, 1988). […]

M2 muscarinic receptors = target: T2, M2 muscarinic receptors (Rattus norvegicus, UniProt P10980); assay: Displacement of 3H-QNB from rat cerebellum, 50 mM phosphate buffer; type: binding
T2 construct: displacing from rat brain homogenates, cerebellum or frontal cortex; from tissue; host or cells: rat cerebellum homogenates
T2 sequence (P10980 1-466): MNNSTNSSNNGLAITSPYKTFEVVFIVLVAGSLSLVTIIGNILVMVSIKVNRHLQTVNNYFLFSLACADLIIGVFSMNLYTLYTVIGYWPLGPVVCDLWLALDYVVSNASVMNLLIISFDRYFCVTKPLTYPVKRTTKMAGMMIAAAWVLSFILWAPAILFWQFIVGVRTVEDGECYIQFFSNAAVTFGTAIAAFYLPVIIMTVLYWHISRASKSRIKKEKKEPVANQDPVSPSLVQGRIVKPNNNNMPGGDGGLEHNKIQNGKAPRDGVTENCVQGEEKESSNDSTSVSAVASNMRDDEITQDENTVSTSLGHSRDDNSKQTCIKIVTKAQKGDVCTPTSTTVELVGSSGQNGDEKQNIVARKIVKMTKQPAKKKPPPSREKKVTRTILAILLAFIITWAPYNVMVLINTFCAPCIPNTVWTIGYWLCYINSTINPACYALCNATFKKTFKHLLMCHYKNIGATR

M1 muscarinic receptor = target: T3, M1 muscarinic receptor (Rattus norvegicus, UniProt P08482); assay: Displacement of 3H-PZ from rat cerebral cortex, 10 mM phosphate buffer; type: binding; set-up: from tissue; host or cells: rat cerebral cortex homogenates
T3 sequence (P08482 1-460): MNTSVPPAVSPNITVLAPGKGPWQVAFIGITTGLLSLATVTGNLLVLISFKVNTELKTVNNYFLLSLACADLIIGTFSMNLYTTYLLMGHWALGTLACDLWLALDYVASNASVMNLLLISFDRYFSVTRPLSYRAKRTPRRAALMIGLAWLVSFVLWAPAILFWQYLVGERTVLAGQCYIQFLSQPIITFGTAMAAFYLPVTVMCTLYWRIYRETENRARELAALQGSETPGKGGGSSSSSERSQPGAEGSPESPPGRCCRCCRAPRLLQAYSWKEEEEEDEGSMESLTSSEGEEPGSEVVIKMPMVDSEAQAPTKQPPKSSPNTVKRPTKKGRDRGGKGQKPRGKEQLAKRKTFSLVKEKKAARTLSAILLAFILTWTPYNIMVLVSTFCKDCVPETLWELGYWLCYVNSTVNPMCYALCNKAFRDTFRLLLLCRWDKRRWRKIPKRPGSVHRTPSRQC

m3 receptors = m3 receptors (Rattus norvegicus, UniProt P08483); assay: PI hydrolysis in CHO cells transfected with m3 receptors; type: cell-based; settings: for effective concentration which induces the effect: CHO m3, PI hydrolysis, footnote b; for PI (phosphoinositides hydrolysis): CHO m3, tested at 1mM
Sequence of m3 receptors (P08483 whole entry): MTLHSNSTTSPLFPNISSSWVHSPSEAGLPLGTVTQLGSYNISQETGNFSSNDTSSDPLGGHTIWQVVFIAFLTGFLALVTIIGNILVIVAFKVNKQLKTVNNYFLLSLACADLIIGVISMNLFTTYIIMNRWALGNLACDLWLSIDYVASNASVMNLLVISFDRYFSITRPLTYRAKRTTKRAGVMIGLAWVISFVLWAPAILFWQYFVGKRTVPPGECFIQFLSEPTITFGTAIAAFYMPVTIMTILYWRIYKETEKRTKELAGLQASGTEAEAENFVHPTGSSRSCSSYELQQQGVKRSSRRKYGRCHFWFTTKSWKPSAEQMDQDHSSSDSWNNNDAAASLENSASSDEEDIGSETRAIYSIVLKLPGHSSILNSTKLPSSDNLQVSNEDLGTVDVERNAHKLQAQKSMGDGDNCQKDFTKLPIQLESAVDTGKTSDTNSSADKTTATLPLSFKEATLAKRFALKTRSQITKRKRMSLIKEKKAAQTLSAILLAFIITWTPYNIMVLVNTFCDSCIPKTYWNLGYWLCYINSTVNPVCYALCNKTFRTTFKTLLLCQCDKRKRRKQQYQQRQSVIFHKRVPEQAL
Procedure: as §1, §2

[2] = test system: AF64A-injected mature rats; assay: 8-arm radial maze (RAM) in AF64A-treated rats, Part A; type: in vivo; settings: AF125 0.5 mg./kg. i.p.
Procedure: This animal model mimics the cholinergic hypofunction and cognitive dysfunction in SDAT (Fisher and Hanin, loc cit; Fisher et al, Neurosci. Lett. 102: 325-331, 1989); the method described in the latter publication was used here.
Forty eight mature male (11-12 months) rats which were used in this study. They were injected icv with AF64A (3 nmole/2 µl./side) 8 months earlier, at the age of three months. One week before the behavioral testing, rats were transferred to individual cages and were food restricted until reaching 90% of their free feeding weight (the rats had free access to water). The room was illuminated 12 hrs a day (6:00 to 18:00) and behavioral testing sessions were carried out during the mornings. After reaching 90% of free feeding weight, rats received about 4 food pellets per day (Altromin, 15 g.) in order to further reduce the rats' weights. Two days before behavioral testing the rats were fed with precision pellets (Bioserv Inc.) which were later used for reinforcement in the maze.
Behavioral tests were conducted in an elevated (70cm) 8-arms radial maze, made of PVC. […]
Due to the size of the batch (48 rats) the experiment was conducted in two phases. […] The correct choices, number of errors and total time scores were analyzed by a 2-way ANOVA (2x2) (Injection-AF64A/saline and Treatment-AF125 0.5 mg./kg./saline).

[3] = cortex, Table 4, read-out: 3H-PZ-Binding KH (a)

T1 sequence (P20309 whole entry): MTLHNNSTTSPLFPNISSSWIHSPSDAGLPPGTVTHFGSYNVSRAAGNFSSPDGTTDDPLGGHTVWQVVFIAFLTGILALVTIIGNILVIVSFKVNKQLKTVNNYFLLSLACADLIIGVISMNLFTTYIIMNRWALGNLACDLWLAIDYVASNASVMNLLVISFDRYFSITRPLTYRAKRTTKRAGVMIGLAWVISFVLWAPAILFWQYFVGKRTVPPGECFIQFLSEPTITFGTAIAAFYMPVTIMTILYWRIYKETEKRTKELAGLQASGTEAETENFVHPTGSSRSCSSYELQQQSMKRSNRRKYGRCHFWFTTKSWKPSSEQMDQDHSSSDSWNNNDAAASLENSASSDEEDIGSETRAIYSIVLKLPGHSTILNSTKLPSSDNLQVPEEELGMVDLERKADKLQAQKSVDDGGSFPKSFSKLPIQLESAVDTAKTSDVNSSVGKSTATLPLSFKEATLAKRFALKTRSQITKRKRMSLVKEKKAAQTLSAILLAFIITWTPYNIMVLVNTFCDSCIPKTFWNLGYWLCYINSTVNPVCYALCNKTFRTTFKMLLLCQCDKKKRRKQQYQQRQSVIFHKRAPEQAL

## CC1=NCC2(CCN(C)CC2)O1 [AF150, 2-Methyl-spiro(1,3-oxazoline-5,4')-1'-methylpiperidine]
[1]; SK-N-SH m3
  PI, % of carbachol effect: 40%
[1]; SK-N-SH m3, PI hydrolysis
  EC50: 3 µM
[1]; SK-N-SH m3, tested at 1mM
  PI (phosphoinositides hydrolysis): +
M2 muscarinic receptors; KL2 : KH2 cerebellum (3H-QNB)
  RATIOS d:c: 17
M2 muscarinic receptors; cerebellum, Table 4
  % H: 49%
  %L: 51%
M2 muscarinic receptors; cerebellum, Table 4, read-out: 3H-QNB-Binding KH (c)
  Ki: 4.5 µM
M2 muscarinic receptors; cerebellum, Table 4, read-out: 3H-QNB-Binding KL (d)
  Ki: 79 µM
M2 muscarinic receptors; cerebellum, Table 5
  % H2: 51%
  % L2: 49%
M2 muscarinic receptors; cerebellum, Table 5, read-out: 3H-QNB-Binding KH2 (c)
  Ki: 4.9 µM
M2 muscarinic receptors; cerebellum, Table 5, read-out: 3H-QNB-Binding KL2 (d)
  Ki: 83 µM
M1 muscarinic receptor; KH cerebellum (3H-QNB) : KH cortex (3H-PZ)
  RATIOS c:a: 225
M1 muscarinic receptor; KL : KH cortex (3H-PZ)
  RATIOS b:a: 900
M1 muscarinic receptor; KL cerebellum (3H-QNB) : KL cortex (3H-PZ)
  RATIOS d:b: 4.4
M1 muscarinic receptor; cortex, Table 4
  % H: 24%
  %L: 76%
M1 muscarinic receptor; [3]
  Ki: 0.02 µM
M1 muscarinic receptor; cortex, Table 4, read-out: 3H-PZ-Binding KL (b)
  Ki: 18 µM
m3 receptors
  effective concentration which induces the effect: 10^b µM
  PI (phosphoinositides hydrolysis): +

## CC1=NC2(CCN(C)CC2)CO1 [AF151, 1-methylpiperidine-4-spiro-4'-(2'-methyl-1',3'-oxazoline)]
m3 receptors
  effective concentration which induces the effect: 10^b µM
  PI (phosphoinositides hydrolysis): +

## CC1=NCC2(CN3CCC2CC3)O1 (racemic) [AF125, 2-Methyl-spiro(1,3 oxazoline-5,3')quinuclidine]
[2]
  Side-effects: Only two saline-injected rats treated with AF125 had diarrhoea
[2]; AF64A-injected rats
  correct choices out of the first eight entries: 6.53±0.36
[1]
  interference with the effect of carbachol: 10-20%
  stimulation of phosphoinositides hydrolysis relative to carbachol: 20-25%
[1]; SK-N-SH m3
  PI, % of carbachol effect: 20%
M2 muscarinic receptors; read-out: 3H-QNB-Binding KH2 (c), cerebellum, Table 5
  Ki: 3.8 µM
M2 muscarinic receptors; read-out: 3H-QNB-Binding KH (c), cerebellum, Table 4
  Ki: 3.8 µM
M1 muscarinic receptor; [3]
  Ki: 4 µM
